Measured values as given in PMC7402526, “An in vitro quantitative systems pharmacology approach for deconvolving mechanisms of drug-induced, multilineage cytopenias” (PLoS Computational Biology, 2020).

Experiments:
[1] = system: total dead cells (totalDeadCells); experiment: MLTA, total dead cells concentration-response; assay type: cell-based; settings: Homo sapiens, 144 h, 6 days, normalized to vehicle control, read-out: total_dead normalized cell count
Method: A custom optimized cytokine cocktail was developed using commercially available cytokines (Peprotech, New Jersey) to facilitate simultaneous multi-lineage differentiation and self-renewal of freeze-thawed primary human bone marrow-derived CD34+ cells in SFEM II media (cells and media from StemCell Technologies, Vancouver). Cultures were carried out in ultra-low attachment 96-well plates (Corning, New York) with test article added on day 0 and cultured at 37°C, 85% relative humidity, and 5% CO2 for six days before interrogating drug impact via 17-parameter flow cytometry.
The flow cytometry panel used to define hematopoietic subsets was composed of CD34-PECy7, CD90-PECY5, CD38-AF488, CD371-PE, CD45Ra-BV421, CD14-BV605, CD42b-AF647, CD10-PEDazzle594, CD235a-PerCPCy5.5 (BioLegend, California), CD15-BUV395, CD41a-APCH7, CD71-BV786 (BD Biosciences, California), and DAPI for dead cell exclusion (ThermoFisher, California). In short, Day 6 cells were harvested, FcR-blocked (FcR binding inhibitor, ThermoFisher), surface-stained, then analyzed in a buffer containing TruCount Control Beads using a BD LSR Fortessa SORP fitted with a high-throughput sampler (BD Biosciences, California). Data was analyzed in Diva 6.0.2 and exported to CSV where after all cell data was transformed to cell per mL then normalized on a per-donor basis to untreated control wells to determine drug impact.
Donor material was collected and cultured as described above. The number of replicate donor samples per drug ranged from 2–7 and varied per drug (S1 Table). Drug treatment was added at time 0 and cells were maintained in culture for 6 days. Concentrations tested for each drug compound are contained in S1 Table. Concentrations were selected to span a range that is clinically useful. Following treatment, cell populations were measured using flow cytometry. We extracted cell counts from flow cytometry data, normalized to bead counts, and corrected for well volume.
Each well was normalized to the average of six vehicle control wells. For drugs that were tested across multiple runs of the assay, vehicle-normalized donor data were pooled, and we used the average of these pooled data for further modeling. Normalized data used as model inputs are included in S1 Table.

[2] = system: late erythroid cells (Eryth II); experiment: MLTA, ErythII: concentration-response and QSP model fit; assay type: cell-based, human; settings: Homo sapiens, 144 h
Method in brief: (§1)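 Parameters come from fitting an Emax-based QSP model, with L1 regularization and Emax ranging 0–2, to vehicle-normalized, bead-corrected flow cytometry counts. Counts came from human bone marrow CD34+ cells treated from day 0 through a 6-day multi-lineage cytokine culture in SFEM II, using 2–7 donors per drug.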

[3] = system: granulocyte-macrophage progenitor (GMPs); experiment: MLTA, GMPs: concentration-response and QSP model fit; assay type: cell-based, human; settings: Homo sapiens, 144 h
Method in brief: as §1

B cells (B-lin) = experiment: MLTA, B-lin: concentration-response and QSP model fit; assay type: cell-based, human; settings: Homo sapiens, B-cell, 144 h
Method in brief: as §1

granulocytes (Gran-lin) = experiment: MLTA, Gran: concentration-response and QSP model fit; assay type: cell-based, human; settings: Homo sapiens, 144 h
Method in brief: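 Six-day flow cytometry counts, bead-normalized and expressed relative to the mean of six vehicle wells, underlie each value. Cells were primary human bone marrow CD34+ cells cultured in SFEM II with cytokines promoting multi-lineage differentiation and self-renewal.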

[4] = system: neutrophils (neutrophil-lin); experiment: MLTA, Neut: concentration-response and QSP model fit; assay type: cell-based, human; settings: Homo sapiens, Neutrophil, 144 h
Method in brief: as §1

MK cells (MK-lin) = experiment: MLTA, MK: concentration-response and QSP model fit; assay type: cell-based, human; settings: Homo sapiens, 144 h
Method in brief: as §1

[5] = system: multi-potent progenitors (MPPs); experiment: MLTA, MPPs: concentration-response and QSP model fit; assay type: cell-based, human; settings: Homo sapiens, 144 h
Method in brief: as §1

[6] = QSP model fit of 6-day MLTA data

CCN1CCN(Cc2ccc(Nc3ncc(F)c(-c4cc(F)c5nc(C)n(C(C)C)c5c4)n3)nc2)CC1 [abemaciclib]
activity at 0.0002 µM ([1]; dose 0.2 nM): 92%
activity at 0.001 µM ([1]; dose 1 nM): 97.6%
activity at 0.005 µM ([1]; dose 5 nM): 87.1%
activity at 0.025 µM ([1]; dose 25 nM): 46.8%
activity at 0.1 µM ([1]; dose 100 nM): 30.9%
activity at 0.5 µM ([1]; dose 500 nM): 22%
activity at 2.5 µM ([1]; dose 2500 nM): 34%
EC50 ([2]; QSP model fit of 6-day MLTA data, read-out: EC50ErythII): 45.1 nM
activity at 0.0002 µM ([2]; dose 0.2 nM, 6 days, normalized to vehicle control, read-out: ErythII normalized cell count): 96.2%
activity at 0.001 µM ([2]; dose 1 nM, 6 days, normalized to vehicle control, read-out: ErythII normalized cell count): 112%
activity at 0.005 µM ([2]; dose 5 nM, 6 days, normalized to vehicle control, read-out: ErythII normalized cell count): 106%
activity at 0.025 µM ([2]; dose 25 nM, 6 days, normalized to vehicle control, read-out: ErythII normalized cell count): 57.9%
activity at 0.1 µM ([2]; dose 100 nM, 6 days, normalized to vehicle control, read-out: ErythII normalized cell count): 20.4%
activity at 0.5 µM ([2]; dose 500 nM, 6 days, normalized to vehicle control, read-out: ErythII normalized cell count): 1.77%
activity at 2.5 µM ([2]; dose 2500 nM, 6 days, normalized to vehicle control, read-out: ErythII normalized cell count): 0.0231%
Emax ([2]; parameter from QSP model fitting, read-out: Emax_drug_ErythroidII): 3.33%
EC50 [3, 6]: 37.3 nM
activity at 0.0002 µM ([3]; dose 0.2 nM, 6 days, normalized to vehicle control, read-out: GMPs normalized cell count): 89.7%
activity at 0.001 µM ([3]; dose 1 nM, 6 days, normalized to vehicle control, read-out: GMPs normalized cell count): 108%
activity at 0.005 µM ([3]; dose 5 nM, 6 days, normalized to vehicle control, read-out: GMPs normalized cell count): 93.6%
activity at 0.025 µM ([3]; dose 25 nM, 6 days, normalized to vehicle control, read-out: GMPs normalized cell count): 50.4%
activity at 0.1 µM ([3]; dose 100 nM, 6 days, normalized to vehicle control, read-out: GMPs normalized cell count): 29.2%
activity at 0.5 µM ([3]; dose 500 nM, 6 days, normalized to vehicle control, read-out: GMPs normalized cell count): 5.84%
activity at 2.5 µM ([3]; dose 2500 nM, 6 days, normalized to vehicle control, read-out: GMPs normalized cell count): 0.643%
EC50 (B cells (B-lin); [6]): 69.2 nM
activity at 0.0002 µM (B cells (B-lin); dose 0.2 nM, 6 days, normalized to vehicle control, read-out: B-lin normalized cell count): 83.9%
activity at 0.001 µM (B cells (B-lin); dose 1 nM, 6 days, normalized to vehicle control, read-out: B-lin normalized cell count): 104%
activity at 0.005 µM (B cells (B-lin); dose 5 nM, 6 days, normalized to vehicle control, read-out: B-lin normalized cell count): 83.9%
activity at 0.025 µM (B cells (B-lin); dose 25 nM, 6 days, normalized to vehicle control, read-out: B-lin normalized cell count): 50.8%
activity at 0.1 µM (B cells (B-lin); dose 100 nM, 6 days, normalized to vehicle control, read-out: B-lin normalized cell count): 23.5%
activity at 0.5 µM (B cells (B-lin); dose 500 nM, 6 days, normalized to vehicle control, read-out: B-lin normalized cell count): 4.07%
activity at 2.5 µM (B cells (B-lin); dose 2500 nM, 6 days, normalized to vehicle control, read-out: B-lin normalized cell count): 0.0736%
Emax (B cells (B-lin); parameter from QSP model fitting, read-out: Emax_drug_B): 64.9%
activity at 0.0002 µM (granulocytes (Gran-lin); dose 0.2 nM, 6 days, normalized to vehicle control, read-out: Gran normalized cell count): 101%
activity at 0.001 µM (granulocytes (Gran-lin); dose 1 nM, 6 days, normalized to vehicle control, read-out: Gran normalized cell count): 107%
activity at 0.005 µM (granulocytes (Gran-lin); dose 5 nM, 6 days, normalized to vehicle control, read-out: Gran normalized cell count): 91.3%
activity at 0.025 µM (granulocytes (Gran-lin); dose 25 nM, 6 days, normalized to vehicle control, read-out: Gran normalized cell count): 34.6%
activity at 0.1 µM (granulocytes (Gran-lin); dose 100 nM, 6 days, normalized to vehicle control, read-out: Gran normalized cell count): 9.12%
activity at 0.5 µM (granulocytes (Gran-lin); dose 500 nM, 6 days, normalized to vehicle control, read-out: Gran normalized cell count): 1.99%
activity at 2.5 µM (granulocytes (Gran-lin); dose 2500 nM, 6 days, normalized to vehicle control, read-out: Gran normalized cell count): 0.0882%
Emax (granulocytes (Gran-lin); parameter from QSP model fitting, read-out: Emax_drug_Gran): 0.16%
EC50 [4, 6]: 66.2 nM
activity at 0.0002 µM ([4]; dose 0.2 nM, 6 days, normalized to vehicle control, read-out: Neut normalized cell count): 99.5%
activity at 0.001 µM ([4]; dose 1 nM, 6 days, normalized to vehicle control, read-out: Neut normalized cell count): 100%
activity at 0.005 µM ([4]; dose 5 nM, 6 days, normalized to vehicle control, read-out: Neut normalized cell count): 86.7%
activity at 0.025 µM ([4]; dose 25 nM, 6 days, normalized to vehicle control, read-out: Neut normalized cell count): 30.8%
activity at 0.1 µM ([4]; dose 100 nM, 6 days, normalized to vehicle control, read-out: Neut normalized cell count): 4.02%
activity at 0.5 µM ([4]; dose 500 nM, 6 days, normalized to vehicle control, read-out: Neut normalized cell count): 0.252%
activity at 2.5 µM ([4]; dose 2500 nM, 6 days, normalized to vehicle control, read-out: Neut normalized cell count): 0.0296%
Emax ([4]; parameter from QSP model fitting, read-out: Emax_drug_Neut): 23.5%
EC50 (MK cells (MK-lin); [6]): 486 nM
activity at 0.0002 µM (MK cells (MK-lin); dose 0.2 nM, 6 days, normalized to vehicle control, read-out: MK normalized cell count): 108%
activity at 0.001 µM (MK cells (MK-lin); dose 1 nM, 6 days, normalized to vehicle control, read-out: MK normalized cell count): 99.5%
activity at 0.005 µM (MK cells (MK-lin); dose 5 nM, 6 days, normalized to vehicle control, read-out: MK normalized cell count): 101%
activity at 0.025 µM (MK cells (MK-lin); dose 25 nM, 6 days, normalized to vehicle control, read-out: MK normalized cell count): 84.2%
activity at 0.1 µM (MK cells (MK-lin); dose 100 nM, 6 days, normalized to vehicle control, read-out: MK normalized cell count): 44.1%
activity at 0.5 µM (MK cells (MK-lin); dose 500 nM, 6 days, normalized to vehicle control, read-out: MK normalized cell count): 8.35%
activity at 2.5 µM (MK cells (MK-lin); dose 2500 nM, 6 days, normalized to vehicle control, read-out: MK normalized cell count): 0.557%
Emax (MK cells (MK-lin); parameter from QSP model fitting, read-out: Emax_drug_MK): 6.8%
activity at 0.0002 µM ([5]; dose 0.2 nM, 6 days, normalized to vehicle control, read-out: MPPs normalized cell count): 102%
activity at 0.001 µM ([5]; dose 1 nM, 6 days, normalized to vehicle control, read-out: MPPs normalized cell count): 98.3%
activity at 0.005 µM ([5]; dose 5 nM, 6 days, normalized to vehicle control, read-out: MPPs normalized cell count): 80.3%
activity at 0.025 µM ([5]; dose 25 nM, 6 days, normalized to vehicle control, read-out: MPPs normalized cell count): 44.3%
activity at 0.1 µM ([5]; dose 100 nM, 6 days, normalized to vehicle control, read-out: MPPs normalized cell count): 24.8%
activity at 0.5 µM ([5]; dose 500 nM, 6 days, normalized to vehicle control, read-out: MPPs normalized cell count): 27.6%
activity at 2.5 µM ([5]; dose 2500 nM, 6 days, normalized to vehicle control, read-out: MPPs normalized cell count): 3.6%
Emax ([5]; parameter from QSP model fitting, read-out: Emax_drug_MPP): 0.16%
